Data reported in patent US9815851B2, “Pyrrolo carboxamides as modulators of orphan nuclear receptor RAR-related orphan receptor-gamma (RORγ, NR1F3) activity and for the treatment of chronic inflammatory and autoimmune diseases” (PHENEX PHARMACEUTICALS AG, priority 2011, dated 2017).
Read-outs that look alike come from different tables or passages of the source.

Tests used:
[1] = target: T1, RORγ ligand binding domain (LBD) (Homo sapiens, UniProt P51449); test: TR-FRET Activity Assay (ligand sensing, RORγ-LBD / coactivator peptide interaction, LANCE); assay type: biochemical
T1 construct: made in house; host or cells: E. coli BL-21 (BL3), vector pDEST15
T1 sequence (P51449 269-508 limits assumed): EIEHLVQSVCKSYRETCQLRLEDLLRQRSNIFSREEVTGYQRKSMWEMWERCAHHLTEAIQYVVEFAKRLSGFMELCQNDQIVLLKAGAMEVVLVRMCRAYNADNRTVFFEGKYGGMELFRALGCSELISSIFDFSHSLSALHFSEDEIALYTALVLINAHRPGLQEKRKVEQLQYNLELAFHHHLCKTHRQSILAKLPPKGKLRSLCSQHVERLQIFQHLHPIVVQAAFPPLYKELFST

[2] = target: T2, RORγ (UniProt P51449); test: RORγ Gal4 Reporter Gene Assay in 293T cells (firefly and renilla luciferase); assay type: cell-based, human
T2 sequence (P51449 1-518): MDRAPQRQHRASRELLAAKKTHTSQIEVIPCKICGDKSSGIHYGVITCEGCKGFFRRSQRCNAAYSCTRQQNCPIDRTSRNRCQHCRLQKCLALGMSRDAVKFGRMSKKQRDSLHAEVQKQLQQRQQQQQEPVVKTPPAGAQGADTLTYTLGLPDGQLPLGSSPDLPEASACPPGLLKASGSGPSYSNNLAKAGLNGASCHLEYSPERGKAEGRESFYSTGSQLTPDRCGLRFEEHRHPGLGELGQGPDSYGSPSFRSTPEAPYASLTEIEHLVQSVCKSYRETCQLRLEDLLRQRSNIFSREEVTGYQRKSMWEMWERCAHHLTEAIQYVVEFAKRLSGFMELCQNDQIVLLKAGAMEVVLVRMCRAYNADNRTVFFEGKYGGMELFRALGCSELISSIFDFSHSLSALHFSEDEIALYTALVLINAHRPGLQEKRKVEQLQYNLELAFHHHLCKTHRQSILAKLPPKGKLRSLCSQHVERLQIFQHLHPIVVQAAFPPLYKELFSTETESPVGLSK

[3] = first value of the cell FRET/FF/REN, TR-FRET activity assay, read-out: pIC50 (FRET) (converted)
[4] = second value of the cell, Gal4 reporter gene assay in 293T cells, firefly luciferase
[5] = third value of the cell, Gal4 reporter gene assay in 293T cells, renilla normalised luciferase

IC50 [1, 3] [µM] | pIC50 (FF) [2, 4] | pIC50 (REN) [2, 5] | Compound | IC50 [1] [µM] | pIC50 (FF) [2] | pIC50 (REN) [2]
3.16 | 7.2 | 7.2 | Cc1c(C(=O)NCC(C)(C)C(=O)O)cc(-c2cc(C(=O)NC(C)(C)C)cc(C3(C)CC3)c2)n1CC1CCCCC1 [17/338] | – | – | –
1.26 | 7.6 | 7.7 | Cc1c(C(=O)N[C@H]2C[C@H](C(=O)O)C2)cc(-c2cc(C(=O)NC(C)(C)C)cc(C3(C)CC3)c2)n1CC1CCCCC1 [17/339] | – | – | –
1.58 | 7.1 | 7.1 | Cc1c(C(=O)NCCC(C)(C)C(=O)O)cc(-c2cc(C(=O)NC(C)(C)C)cc(C3(C)CC3)c2)n1CC1CCCCC1 [17/340] | – | – | –
0.398 | 6.5 | 6.5 | Cc1c(C(=O)NCCN2CCN(S(C)(=O)=O)CC2)cc(-c2cc(C(C)(C)C)cc(C3(C)CC3)c2)n1CC1CCCCC1 [17/347] | – | – | –
0.316 | 6.9 | 7.0 | Cc1c(C(=O)NCC(C)(C)O)cc(-c2cc(OC(F)(F)F)cc(C3(C)CC3)c2)n1CC1CCCCC1 [17/348] | – | – | –
0.631 | 6.8 | 6.8 | Cc1c(C(=O)NCC(C)(C)O)cc(-c2cc(OC(F)(F)F)cc(C(=O)NC(C)(C)C)c2)n1CC1CCCCC1 [17/349] | – | – | –
1 | 7.7 | 7.7 | Cc1c(C(=O)N[C@H]2C[C@H](C(=O)O)C2)cc(-c2cc(OC(F)(F)F)cc(C3(C)CC3)c2)n1CC1CCCCC1 [17/350] | – | – | –
0.631 | 7.5 | 7.5 | Cc1c(C(=O)NC2CCOCC2)cc(-c2cc(C(=O)NCC(F)(F)F)cc(C3(C)CC3)c2)n1CC1CCCCC1 [17/352] | – | – | –
1 | 7.0 | 7.0 | Cc1c(C(=O)N[C@H]2C[C@H](C(=O)O)C2)cc(-c2cc(C(C)(C)C)nc(C(C)(C)C)n2)n1CC1CCCCC1 [17/354] | – | – | –
2 | 6.7 | 6.8 | Cc1c(C(=O)N[C@H]2C[C@H](C(=O)O)C2)cc(-c2cc(C(=O)NCC(F)(F)F)cc(C3(C)CC3)c2)n1CC1CCCCC1 [17/357] | – | – | –
1 | 6.3 | 6.2 | Cc1c(C(=O)N[C@H]2C[C@H](C(=O)O)C2)cc(-c2cc(C(=O)N[C@@H](C)C(F)(F)F)cc(C3(C)CC3)c2)n1CC1CCCCC1 [17/358] | – | – | –
3.16 | 7.4 | 7.4 | Cc1c(C(=O)N[C@H]2C[C@H](C(=O)O)C2)cc(-c2cc(C(=O)N[C@H](C)C(F)(F)F)cc(C3(C)CC3)c2)n1CC1CCCCC1 [17/359] | – | – | –
6.31 | 7.3 | 7.4 | Cc1c(C(=O)N[C@H]2C[C@H](C(=O)O)C2)cc(-c2cc(C(=O)NC(C)(C)C(F)(F)F)cc(C3(C)CC3)c2)n1CC1CCCCC1 [17/360] | – | – | –
1.26 | 5.9 | 5.8 | Cc1c(C(=O)N[C@H]2C[C@H](C(=O)O)C2)cc(-c2ccc(S(=O)(=O)NC3(C#N)CC3)c(C(F)(F)F)c2)n1CC1CCCCC1 [17/362] | – | – | –
1 | 6.9 | 7.0 | Cc1c(C(=O)N[C@H]2C[C@H](C(=O)O)C2)cc(-c2ccc(S(=O)(=O)NC(C)(C)C)c3c(F)cccc23)n1CC1CCCCC1 [17/364] | – | – | –
7.94 | 6.4 | 6.2 | Cc1c(C(=O)N[C@H]2C[C@H](C(=O)O)C2)cc(-c2cc(C(C)(C)C)cc(C(=O)NC(C)(C)C)c2Cl)n1CC1CCCCC1 [17/368] | – | – | –
3.16 | 6.3 | 6.2 | Cc1c(C(=O)N[C@H]2C[C@H](C(=O)O)C2)cc(-c2cc(C(=O)NC(C)(C)C)nc(C3(C)CC3)n2)n1CC1CCCCC1 [17/372] | – | – | –

Second part, the compound before the results:

Compound | IC50 [1, 3] [µM] | pIC50 (FF) [2, 4] | pIC50 (REN) [2, 5] | IC50 [1] [µM] | pIC50 (FF) [2] | pIC50 (REN) [2]
Cc1c(C(=O)NC2CCOCC2)cc(-c2cc(C(=O)NC(C)(C)C)cc(C3(C)CC3)c2)n1CC1CCCCC1 [17/337] | 1 | 7.7 | 7.8 | – | – | –
Cc1c(C(=O)NCC2(O)CCOCC2)cc(-c2cc(C(=O)NC(C)(C)C)cc(C3(C)CC3)c2)n1CC1CCCCC1 [17/341] | – | – | – | 0.794 | 6.1/7.4/7.6 | 6.1/7.4/7.6
Cc1c(C(=O)N2CC(N3CCOCC3)C2)cc(-c2cc(C(C)(C)C)cc(C3(C)CC3)c2)n1CC1CCCCC1 [17/344] | 0.631 | 7.3 | 7.5 | – | – | –
Cc1c(C(=O)NCC2CCN(S(C)(=O)=O)CC2)cc(-c2cc(C(C)(C)C)cc(C3(C)CC3)c2)n1CC1CCCCC1 [17/345] | 0.316 | 7.3 | 7.4 | – | – | –
Cc1c(C(=O)NCCN2CCN(C)CC2)cc(-c2cc(C(C)(C)C)cc(C3(C)CC3)c2)n1CC1CCCCC1 [17/346] | – | – | – | 5.01 | 5.3/<4.7/<4.7 | 5.3/<4.7/<4.7
Cc1c(C(=O)N[C@H]2C[C@H](C(=O)O)C2)cc(-c2cc(OC(F)(F)F)cc(C(=O)NC(C)(C)C)c2)n1CC1CCCCC1 [17/351] | 2 | 6.8 | 6.9 | – | – | –
Cc1c(C(=O)NCC(C)(C)C(=O)O)cc(-c2cc(C(C)(C)C)nc(C(C)(C)C)n2)n1CC1CCCCC1 [17/353] | 2 | 6.8 | 6.8 | – | – | –
Cc1c(C(=O)NCC(C)(C)O)cc(-c2cc(C3(C)CC3)nc(C(C)(C)C)n2)n1CC1CCCCC1 [17/355] | – | – | – | 0.316 | 6.5/6.6/6.6 | 6.5/6.6/6.6
Cc1c(C(=O)NCC(C)(C)O)cc(-c2cc(C(C)(C)C)nc(C3(C)CC3)n2)n1CC1CCCCC1 [17/356] | 0.398 | 6.7 | 6.7 | – | – | –
Cc1c(C(=O)NCCC(C)(C)C(=O)O)cc(-c2ccc(S(=O)(=O)NC3(C#N)CC3)c(C(F)(F)F)c2)n1CC1CCCCC1 [17/361] | 2 | 6.4 | 6.4 | – | – | –
Cc1c(C(=O)NC2CCOCC2)cc(-c2ccc(S(=O)(=O)NC(C)(C)C)c3c(F)cccc23)n1CC1CCCCC1 [17/363] | 1 | 7.4 | 7.5 | – | – | –
Cc1c(C(=O)NCC(C)(C)O)cc(-c2ccc(S(=O)(=O)NC(C)(C)C)c3c(F)cccc23)n1CC1CCCCC1 [17/365] | 1.26 | 7.0 | 7.0 | – | – | –
Cc1c(C(=O)NCC(C)(C)O)cc(-c2cc(C(C)(C)C)nc3ccccc23)n1CC1CCCCC1 [17/366] | 5.01 | 6.6 | 6.3 | – | – | –
Cc1c(C(=O)NCC(C)(C)O)cc(-c2cc(C(C)(C)C)cc(C(=O)NC(C)(C)C)c2Cl)n1CC1CCCCC1 [17/367] | 5.01 | 6.4 | 6.1 | – | – | –
Cc1c(C(=O)NC2CCOCC2)cc(-c2ccc(S(=O)(=O)NC(C)(C)C)c3cnccc23)n1CC1CCCCC1 [17/369] | – | – | – | 1.26 | 5.9/7.5/7.5 | 5.9/7.5/7.5
Cc1c(C(=O)NCC(C)(C)O)cc(-c2ccc(S(=O)(=O)NC(C)(C)C)c3ccccc23)n1CC1CCCC(F)C1 (stereo not drawn) [17/370] | 2 | 7.2 | 7.3 | – | – | –
Cc1c(S(=O)(=O)NC(C)(C)C)ccc(-c2cc(C(=O)NCC(C)(C)C(N)=O)c(C)n2CC2CCCCC2)c1Cl [17/371] | 0.631 | 8.0 | 8.0 | – | – | –
Cc1c(C(=O)NCC(C)(C)O)cc(-c2cc(C(=O)NC(C)(C)C)nc(C3(C)CC3)n2)n1CC1CCCCC1 [17/373] | 5.01 | < 4.7 | < 4.7 | – | – | –
Cc1c(C(=O)NCC(C)(C)O)cc(-c2ccc(S(=O)(=O)NC(C)(C)C)c3ccccc23)n1CC1CCC(F)CC1 (stereo not drawn) [17/374] | 1.58 | 7.3 | 7.3 | – | – | –
CC(=NO)c1cc(-c2cc(C(=O)NC3CCOCC3)c(C)n2CC2CCCCC2)cc(C(C)(C)C)c1 [18/1] | 0.794 | 7.5 | 7.7 | – | – | –
Cc1c(C(=O)NC2CCOCC2)cc(-c2ccc(S(=O)(=O)NC(C)(C)CCF)c(C(F)(F)F)c2)n1CC1CCCCC1 [18/2] | 0.251 | 8.0 | 8.2 | – | – | –
Cc1c(C(=O)NC2CCOCC2)cc(-c2cc3c(c(C(C)(C)C)c2)OCCC3=NO)n1CC1CCCCC1 [18/3] | 1.58 | 6.1 | 6.5 | – | – | –
Cc1c(C(=O)NC2CCOCC2)cc(-c2cc3c(c(C(C)(C)C)c2)OCCC3F)n1CC1CCCCC1 (stereo not drawn) [18/4] | 0.794 | 6.3 | 6.5 | – | – | –
Cc1c(C(=O)NC2CCOCC2)cc(-c2ccc(S(=O)(=O)NC(C)(C)CF)c(C(F)(F)F)c2)n1CC1CCCCC1 [18/5] | – | – | – | 0.631 | 6.2/7.5/7.5 | 6.2/7.5/7.5
